Experimental findings from patent US20030109537A1, “Methods and materials for treating bone conditions” (priority 2001, published 2003) are described below.

The subject of this series is rat model for parathyroid bone disease. Briefly: Rat model for parathyroid bone disease: pulsatile vs continuous PTH, bone histomorphometry. The format is in vivo. As to the method: Induction of parathyroid bone disease. Three month-old female Sprague-Dawley rats (Harlan Sprague-Dawley, Inc., Indianapolis, Ind.) were randomly divided into 3 groups, with 5 rats per group. In group 1 (pulsatile or intermittent PTH), each rat received 80 μg/kg/day human PTH (1-34) (hPTH) in vehicle (150 mM NaCl, 1 mM HCl and 2% heat-inactivated rat serum) by subcutaneous (s.c.) injection once daily for 7 days. In group 2 (vehicle), an osmotic pump (Alza Corp., Mountainview, Calif.) that delivered vehicle alone at a rate of 1 μl/hr for 7 days was implanted in each rat. In group 3 (continuous PTH), an osmotic pump that delivered 40 μg/kg/day hPTH at a rate of 1 μl/hr for 7 days was implanted in each rat. On day 8, all rats were anesthetized with ketamine (50 mg/kg): xylazine HCl (5 mg/kg) and sacrificed by decapitation. Both tibiae were removed from each rat. Right tibiae were fixed by immersion in 70% ethanol then processed for bone histology to verify the appearance of peritrabecular fibrosis. Left tibiae were frozen in liquid N2 and stored at −80° C. until processed for RNA isolation.
Bone histomorphometry. Proximal metaphyses were dehydrated in a graded series of ethanol, then infiltrated and embedded in methymethacrylate (Fisher Scientific, Fair Lawn, N.J.). After embedding, 5 μm sections were cut using a microtome (Reichert-Jung Model 2065, Heidelberg, Germany), and the sections were mounted unstained. Dynamic histomorphometric cancellous bone measurements were made in the unstained sections using fluorescent microscopy to detect the injected tetracycline and calcein markers. After obtaining the cancellous bone measurements, consecutive sections were stained with toluidine blue for bone cell and peritrabecular fibrosis measurements using light microscopy. A standard sampling site of 2.8 mm was located in the secondary spongiosa of the metaphysis at 1.5 mm distal to the growth plate.
All histomorphometric measurements were made with an Osteomeasure image analysis system (OsteoMetrics, Atlanta, Ga.) coupled to a photomicroscope and personal computer. All parameters were calculated according to standardized nomenclature. See, for example, Parfitt et al., J. Bone Miner. Res., 2:595-610 (1987). Bone volume was defined as the percentage of tissue volume consisting of cancellous bone. Tetracycline and calcein labels were determined as the percentage of bone perimeter labeled with fluorochrome. Mineral apposition rate (MAR) was defined as the average width between tetracycline and calcein label divided by interlabel time of 6 days. Bone formation rate (BFR) was defined as the product of MAR and the calcein label perimeter, and was expressed per bone surface (BFR/BS), bone volume (BFR/BV), or tissue volume (BFR/TV). Osteoblast surface was defined as a palisade of large basophilic cuboidal cells directly lying on top of the osteoid, and was expressed as a percent of bone perimeter. Osteoclast surface was defined as the bone perimeter lined by multinucleated cells regardless of the presence of erosion. Fibrotic perimeter was defined as the bone perimeter lined by multilayers of fibroblasts.
A rat model of hyperparathyroidism (HPT) was developed as described in Example 1, and compared to intermittent PTH treatment. PTH results in major changes in bone metabolism in less than 1 week and these short-term changes accurately predict the long-terms effects of the hormone. To induce an anabolic course of PTH action, human recombinant PTH was administered s.c. (80 μg/kg/d). […] In contrast, no increase in osteoclast number was noted.
To mimic HPT, hPTH was infused continuously at the same dose rate (80 μg/kg/d) using a s.c. implanted osmotic pump. […] In addition, bone formation in rats treated continuously or intermittently with PTH had similar increases in bone formation after 1 week. Cancellous osteopenia was not observed. […]

The mark [1] stands for this setting: pulsatile PTH 80 μg/kg/day s.c. once daily 7 days, rats.
The mark [2] stands for this setting: pulsatile PTH 80 μg/kg/day s.c. once daily 7 days, rats, vs untreated control.

Turning to human PTH (1-34), the osteoclast number result (PTH s.c. 80 μg/kg/d, rats) is listed as “no increase”. In addition, the Cancellous osteopenia entry (PTH-treated rats, 1 week) is given as “not observed”. Where the note is “programmed implantable osmotic pump, same quantity of PTH, rats”, the “PTH pulse duration having the same effect as continuous PTH” value was found to be 6 h. Under setting [1], the Marrow fibrosis entry was “Not observed^a” and the Osteoid surface entry is reported as “Minimal^a”. Under setting [2], the Osteoblast perimeter result is “↑^a” and the “mRNA levels for one matrix proteins” value is “↑^a”.
